#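 Where inhibition never reached the appropriate level, the endpoint shown equals the highest concentration tested. Otherwise, values were interpolated linearly from a five-concentration, 48-hour dose response in 96-well plates. Here, GI50 denotes the concentration required for 50% inhibition of growth. TGI: concentration producing complete growth inhibition.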
# Experiments:
# Experiment in all cases: NCI tumour cell line growth inhibition, 48 h
# [1] = system: CCRF-CEM leukemia
# [2] = system: SK-MEL-28 melanoma
# [3] = system: SF-268 CNS
# [4] = system: MDA-MB-231 breast
# [5] = system: HCT-15 colon
# [6] = system: BT-549 breast
# [7] = system: SK-OV-3 ovarian
# [8] = system: U251 CNS
# [9] = system: HL-60(TB) leukemia
# [10] = system: HS 578T breast
Compound,TGI [1] [µM],TGI [2] [µM],TGI [3] [µM],TGI [4] [µM],TGI [5] [µM],TGI [6] [µM],TGI [7] [µM],TGI [8] [µM],TGI [9] [µM],GI50 [1] [µM],GI50 [2] [µM],GI50 [9] [µM],GI50 [3] [µM],GI50 [4] [µM],GI50 [5] [µM],GI50 [10] [µM],TGI [10] [µM],GI50 [7] [µM],GI50 [8] [µM],GI50 [6] [µM]
O=S(=O)(F)Cc1ccccc1,> 100,> 100,> 100,> 100,> 100,> 100,> 100,> 100,–,–,–,–,–,–,–,–,–,–,–,–
CC(=O)OC1(Sc2ccccc2)CC2[C@H]3COC(C)(C)O[C@H]3CC[C@@]2(C)CC1=O (some centres not stated),–,> 100,–,–,> 100,–,95.7,–,–,–,–,–,–,–,–,–,–,–,–,–
Cc1nc2ccccc2c(=O)n1/N=C(\N=Nc1ccc(Cl)cc1)c1cccc(-c2ccco2)c1,88.2,58.7,> 100,–,> 100,–,> 100,> 100,69.4,–,–,–,–,–,–,–,–,–,–,–
COc1ccc(-n2cc(-c3cc(OC)c(OC)c(OC)c3)nc2SCc2cccc(C#N)c2)cc1OC,> 100,> 100,> 100,> 100,> 100,–,> 100,> 100,> 100,> 100,16.8,> 100,95.8,> 100,> 100,62.2,> 100,> 100,> 100,–
O=[N+]([O-])c1ccc(Sc2cccc[n+]2[O-])c2nonc12,–,6.31,21.1,16,14.7,25.8,> 100,17.6,–,1.42,2.47,–,5.27,4.7,3.03,3.66,28.1,30,3.56,12.7
S=C1SCC2CCCN12 (configuration not stated),> 100,–,> 100,–,> 100,–,> 100,> 100,> 100,–,–,–,–,–,–,–,–,–,–,–
Cc1c(C)c2cc3c(=O)c(CCl)coc3c(C)c2oc1=O,> 100,> 100,> 100,–,> 100,–,> 100,> 100,> 100,–,–,–,–,–,–,–,–,–,–,–
N.N.N.N.N#N.N#N.[Cl-].[Os+6],–,> 100,> 100,–,> 100,–,–,> 100,–,–,> 100,–,> 100,–,> 100,–,–,–,> 100,–
CC1(Cl)C(=O)NC(=O)N([C@H]2C[C@H](O)[C@@H](CO)O2)C1N=[N+]=[N-] (some centres not stated),> 100,> 100,> 100,–,> 100,–,> 100,> 100,> 100,–,–,–,–,–,–,–,–,–,–,–
COc1ccc2c(c1OC)C(=O)C2,> 100,> 100,> 100,–,> 100,–,> 100,> 100,> 100,–,–,–,–,–,–,–,–,–,–,–
COc1ccccc1/C=C1\C(=O)N(C(=O)Cc2ccccc2)N=C1C,> 100,> 100,> 100,–,> 100,–,–,> 100,> 100,–,–,–,–,–,–,–,–,–,–,–
COc1ccc(/C=C\c2cc(OC)c(OC)c(OC)c2)cc1NC(=O)/C=C/c1ccc(OC)c(OC)c1,> 100,> 100,> 100,> 100,> 100,> 100,0.676,> 100,8.85,4.19,3.39,2.54,7.29,25.5,4.41,–,–,0.0736,3.53,7.7
CC1=CC(=O)NP(=O)(Oc2ccc(Cl)cc2)N1 (configuration not stated),> 100,> 100,> 100,–,> 100,–,> 100,> 100,> 100,–,–,–,–,–,–,–,–,–,–,–
CN(c1cccc(C(=O)O)c1)c1cc(O/N=[N+](\[O-])N(C)C)c([N+](=O)[O-])cc1[N+](=O)[O-],–,> 100,> 100,> 100,> 100,> 100,–,> 100,> 100,–,85.1,72.2,55.5,> 100,> 100,> 100,> 100,–,> 100,> 100
CC(C)(C)C1=CC(=N/N=c2\scc(-c3ccccc3)n2Cc2ccccc2)C=C(C(C)(C)C)C1=O,> 100,> 100,> 100,–,> 100,–,–,> 100,> 100,–,–,–,–,–,–,–,–,–,–,–
Cc1nc(-n2nc(-c3ccccc3)cc2-c2ccccc2)sc1C(=O)CC(=O)C(=O)Nc1ccc(Cl)c(Cl)c1,> 100,–,> 100,–,> 100,–,> 100,> 100,> 100,–,–,–,–,–,–,–,–,–,–,–
N#CN1CC[C@@H]2CC3(CCC2C1)OCCO3 (some centres not stated),> 100,–,> 100,–,> 100,–,> 100,> 100,> 100,–,–,–,–,–,–,–,–,–,–,–
COCN1COCN(C)C1=O,> 100,> 100,> 100,–,> 100,–,> 100,> 100,–,–,–,–,–,–,–,–,–,–,–,–
CNc1c2ccccc2nc2occ(Cl)c12,84.5,> 100,> 100,–,> 100,–,> 100,> 100,–,27.1,48.7,–,26.8,–,33.8,20.9,79.3,36.8,31.4,–
O=C1NC(c2ccccc2)(c2ccccc2)C(=O)N1CCCCCCN1C(=O)NC(c2ccccc2)(c2ccccc2)C1=O,> 100,89.2,> 100,–,> 100,–,77.2,> 100,> 100,–,–,–,–,–,–,–,–,–,–,–
O=C(O)CCC(O)=C1S(=O)(=O)OCCOS1(=O)=O,–,> 100,> 100,> 100,> 100,> 100,> 100,> 100,> 100,–,–,–,–,–,–,–,> 100,–,–,–
Cn1cc(-c2ccc3c4ccccc4n(C)c3c2)c2ccccc21,> 100,> 100,> 100,–,> 100,–,> 100,> 100,> 100,–,–,–,–,–,–,–,–,–,–,–
O=C(n1c2ccccc2c2n[nH]c(=S)nc21)C(F)(F)F,> 100,> 100,> 100,–,> 100,–,> 100,> 100,–,–,–,–,–,–,–,–,–,–,–,–

# From PubChem BioAssay (NCI)
